Here are results for 34 compounds from ChEMBL document CHEMBL2346598, “Synthesis and pharmacological characterization of 2-(acylamino)thiophene derivatives as metabolically stable, orally effective, positive allosteric modulators of the GABAB receptor” (J Med Chem, 2013).

Active and inactive are the calls of the source. The calls are words filed in the database; no cut-off is given here.

The species entered for data set [1] is Rattus norvegicus. Briefly: Positive allosteric modulation of GABAB receptor in rat cortical membranes assessed as potentiation of GABA-induced [35S]GTPgammaS binding after 30 mins by liquid scintillation counting analysis. It is filed as functional, cell membranes. The note with it: Membrane.
The species entered for data set [2] is Rattus norvegicus. Briefly: Positive allosteric modulation of GABAB receptor in rat cortical membranes assessed as stimulation of [35S]GTPgammaS binding up to 100 uM after 30 mins by liquid scintillation counting analysis. It is filed as functional, cell membranes. The note with it: Membrane.
The subject of the next data set is NIH3T3. Briefly: Cytotoxicity against mouse NIH/3T3 cells after 24 hrs by neutral red staining-based UV/visible spectrophotometric analysis. The class given is cell-based. The note with it: NIH3T3, 24 h.
The species named for data set [3] is Rattus norvegicus. Briefly: Positive allosteric modulation of GABAB receptor in rat cortical membranes assessed as potentiation of GABA-induced [35S]GTPgammaS binding at 25 uM after 30 mins by liquid scintillation counting analysis relative to GABA. The class given is functional, cell membranes. The note with it: Membrane.
Data set [4] is filed under the species Rattus norvegicus. In words: Positive allosteric modulation of GABAB receptor in rat cortical membranes assessed as potentiation of GABA-induced [35S]GTPgammaS binding at 2.5 uM after 30 mins by liquid scintillation counting analysis relative to GABA. It is filed as functional, cell membranes. The note with it: Membrane.
Data set [5] is described as follows: Ratio of compound IC50 to COR627 IC50 for mouse NIH/3T3 cells. It is filed as ADME, cell-based, NIH3T3. The note with it: read-out: Ratio IC50.
Data set [6] can be described thus: Ratio of compound IC50 to COR628 IC50 for mouse NIH/3T3 cells. It is filed as ADME, cell-based, NIH3T3. The note with it: read-out: Ratio IC50.

For `CCc1c(C)sc(NC(=O)c2ccc(-c3ccccc3)cc2)c1C(=O)OC`, the result in the data set listed under Rattus norvegicus [1] and in the data set listed under Rattus norvegicus [2] was inactive.
`COC(=O)c1ccsc1NC(=O)c1ccccc1`: the result in the data set filed under Rattus norvegicus [1] and in the data set listed under Rattus norvegicus [2] was inactive.
Turning to `COC(=O)c1ccsc1NC(=O)c1ccc(Cl)cc1`, the outcome in the data set filed under Rattus norvegicus [1] and in the data set filed under Rattus norvegicus [2] was inactive.
With `COc1ccc(C(=O)Nc2sc3c(c2C#N)CCCC3)cc1OC`, the result in the data set listed under Rattus norvegicus [1] and in the data set listed under Rattus norvegicus [2] was inactive.
Turning to `CCc1c(C)sc(NC(=O)c2ccccc2Cl)c1C(=O)OC`, the result in the data set filed under Rattus norvegicus [1] and in the data set listed under Rattus norvegicus [2] was inactive.
Regarding `CCc1c(C)sc(NC(=O)C2CC2)c1C(=O)OC`, the outcome in the data set listed under Rattus norvegicus [1] and in the data set listed under Rattus norvegicus [2] was inactive.
In turn, `Cc1ncc(-c2ccc(C(F)(F)F)cc2)c(N[C@@H]2C[C@H]3CC[C@@H]2C3)n1` gave an IC50 in the data set on NIH3T3 of 35 µM. That is a double-digit micromolar value.
Regarding `CCc1c(C)sc(NC(=O)c2ccc(Br)cc2)c1C(=O)OC`, the outcome in the data set listed under Rattus norvegicus [1] and in the data set filed under Rattus norvegicus [2] was inactive.
With `COC(=O)c1c(NC(=O)c2ccccc2)sc2c1CCCC2`, the result in the data set listed under Rattus norvegicus [1] and in the data set filed under Rattus norvegicus [2] was inactive.
For `CCc1c(C)sc(NC(C)=O)c1C(=O)OC`, the result in the data set filed under Rattus norvegicus [1] and in the data set listed under Rattus norvegicus [2] was inactive.
`COC(=O)c1c(NC(=O)C2CCCCC2)sc2c1CCCC2`: the values for the Activity in the data set listed under Rattus norvegicus [3] and in the data set listed under Rattus norvegicus [4] were 12% and -5.6%, respectively. For the same compound, the result in the data set listed under Rattus norvegicus [1] and in the data set filed under Rattus norvegicus [2] was inactive. In addition, in the data set with NIH3T3, the IC50 turned out to be 62 µM.
With `CCc1c(C)sc(NC(=O)c2ccc(I)cc2)c1C(=O)OC`, the result in the data set listed under Rattus norvegicus [1] and in the data set filed under Rattus norvegicus [2] was inactive.
`CCc1c(C)sc(N(C)C(=O)c2ccc(Cl)cc2)c1C(=O)OC`: the result in the data set listed under Rattus norvegicus [1] and in the data set listed under Rattus norvegicus [2] was inactive.
In the case of `CCc1c(C)sc(NC(=O)c2ccc(OC)cc2)c1C(=O)OC`, the result in the data set listed under Rattus norvegicus [1] and in the data set filed under Rattus norvegicus [2] was inactive.
For the compound `CCc1c(C)sc(NC(=O)C2CCCC2)c1C(=O)OC`, the Activity was 12.1% in the data set listed under Rattus norvegicus [3] and 3% in the data set filed under Rattus norvegicus [4]. For the same compound, the result in the data set filed under Rattus norvegicus [1] and in the data set listed under Rattus norvegicus [2] was inactive. In the data set with NIH3T3, this compound had an IC50 of 34 µM.
For `CCc1c(C)sc(NC(=O)C23CC4CC(CC(C4)C2)C3)c1C(=O)OC`, the values for the Activity in the data set listed under Rattus norvegicus [3] and in the data set listed under Rattus norvegicus [4] were 22% and 9.2%, respectively. The compound further gave an IC50 in the data set with NIH3T3 of 32 µM.
Take `CCc1c(C)sc(NC(=O)c2cccc(Cl)c2)c1C(=O)OC`: the Activity in the data set filed under Rattus norvegicus [3] was 11%; in the data set filed under Rattus norvegicus [4], 4%. Besides, the result in the data set filed under Rattus norvegicus [1] and in the data set listed under Rattus norvegicus [2] was inactive.
With `CCc1c(C)sc(NC(=O)C(C)(C)C)c1C(=O)OC`, the outcome in the data set filed under Rattus norvegicus [1] and in the data set listed under Rattus norvegicus [2] was inactive.
In the case of `CCc1c(C)sc(NS(=O)(=O)C2CCCCC2)c1C(=O)OC`, the outcome in the data set listed under Rattus norvegicus [1] and in the data set listed under Rattus norvegicus [2] was inactive.
In the case of `CCc1c(C)sc(NC(=O)Oc2ccccc2)c1C(=O)OC`, the Activity in the data set listed under Rattus norvegicus [3] was 8.2%; in the data set filed under Rattus norvegicus [4], 3.9%. Further, the result in the data set filed under Rattus norvegicus [1] and in the data set listed under Rattus norvegicus [2] was inactive.
Turning to `CCc1c(C)sc(NC(=O)Cc2ccccc2)c1C(=O)OC`, the outcome in the data set filed under Rattus norvegicus [1] and in the data set filed under Rattus norvegicus [2] was inactive.
Regarding `N#Cc1c(NC(=O)C2CCCCC2)sc2c1CCCC2`, the selectivity ratio in data set [5] and in data set [6] was 4 throughout. The outcome in the data set listed under Rattus norvegicus [1] and in the data set filed under Rattus norvegicus [2] was inactive.
Consider `CCc1c(C)sc(NC(=O)c2ccc(-c3cccnc3)cc2)c1C(=O)OC`, for which the result in the data set listed under Rattus norvegicus [1] and in the data set listed under Rattus norvegicus [2] was inactive.
With `CCc1c(C)sc(NS(=O)(=O)c2ccc(C)cc2)c1C(=O)OC`, the outcome in the data set filed under Rattus norvegicus [1] and in the data set listed under Rattus norvegicus [2] was inactive.
Regarding `CCCOC(=O)c1c(NC(=O)c2ccc(Cl)cc2)sc(C)c1CC`, the outcome in the data set filed under Rattus norvegicus [1] and in the data set listed under Rattus norvegicus [2] was inactive.
As to `CCCOC(=O)c1c(NC(=O)c2ccc(C)cc2)sc(C)c1CC`, the result in the data set filed under Rattus norvegicus [1] and in the data set listed under Rattus norvegicus [2] was inactive.
Consider `CCc1c(C)sc(NC(=O)c2ccc(-c3ccc(C)cc3)cc2)c1C(=O)OC`, for which the result in the data set filed under Rattus norvegicus [1] and in the data set listed under Rattus norvegicus [2] was inactive.
In the case of `CCc1c(C)sc(NC(=O)c2ccc([N+](=O)[O-])cc2)c1C(=O)OC`, the result in the data set listed under Rattus norvegicus [1] and in the data set listed under Rattus norvegicus [2] was inactive.
Turning to `COC(=O)c1c(NC(=O)c2ccc(OC)c(OC)c2)sc2c1CCCC2`, the Activity in the data set listed under Rattus norvegicus [3] was 9%; in the data set listed under Rattus norvegicus [4], -4.1%. Moreover, the outcome in the data set filed under Rattus norvegicus [1] and in the data set listed under Rattus norvegicus [2] was inactive.
Turning to `CCc1c(C)sc(NC(=O)c2ccc(C)cc2)c1C(=O)OC(C)(C)C`, the outcome in the data set listed under Rattus norvegicus [1] and in the data set filed under Rattus norvegicus [2] was inactive.
Take `CCc1c(C)sc(NC(=O)c2ccc(Cl)cc2)c1C(=O)OC(C)(C)C`: the outcome in the data set listed under Rattus norvegicus [1] and in the data set filed under Rattus norvegicus [2] was inactive.
With `CCc1c(C)sc(NC(=O)C2CCCCC2)c1C(=O)OC`, the Activity is 15.1% in the data set listed under Rattus norvegicus [3] and 2% in the data set listed under Rattus norvegicus [4]. Further, half-maximal inhibition in the data set with NIH3T3 (IC50) required 33 µM.
For `CCc1c(C)sc(NC(=O)c2ccccc2)c1C(=O)OC`, the results for the Activity in the data set filed under Rattus norvegicus [3] and in the data set filed under Rattus norvegicus [4] were 12% and 3.1%, respectively. In addition, the result in the data set listed under Rattus norvegicus [1] and in the data set filed under Rattus norvegicus [2] was inactive. Also, the IC50 with NIH3T3 worked out at 66 µM.
As for `CCc1c(C)sc(NS(=O)(=O)c2ccccc2)c1C(=O)OC`, the results for the Activity in the data set filed under Rattus norvegicus [3] and in the data set listed under Rattus norvegicus [4] were 5.9% and 2.9%, respectively. The result in the data set filed under Rattus norvegicus [1] and in the data set filed under Rattus norvegicus [2] was inactive. In the data set on NIH3T3, this compound registered an IC50 of 146 µM.
